Reference: US11779628B2, “Use of cell-permeable peptide inhibitors of the JNK signal transduction pathway for the treatment of various diseases” (Xigen Inflammation Ltd., priority 2014, dated 2023)
Where two headings read alike, the source gives them in different places. Non-standard residues stand in square brackets, D forms with d. No end group written: not given here.

What was measured:
TC-3 cells = assay: IL-1 induced pancreatic beta-cell death; type: cell-based; details: single addition 1 μM, two days with IL-1
Procedure: Inhibition of IL-1 induced pancreatic beta-cell death by the D-TAT-IB1(s) peptide was analyzed. […] Apoptotic cells were then counted after two days of incubation with IL-1 by use of Propidium Iodide and Hoechst 33342 nuclear staining. A minimum of 1,000 cells were counted for each experiment. Standard Error of the Means (SEM) are indicated, n=5. […] Long term inhibition of IL-1P induced cell-death by the D-TAT-IB1 peptide was also analyzed. […] Apoptotic cells were then counted after 15 days of incubation with IL-1 by use of propidium iodide and Hoechst 33342 nuclear staining. […] A minimum of 1.000 cells were counted for each experiment.

JNK = details: Dickens et al. 1997; cited from earlier work
[1] = test system: Sprague-Dawley albino rats, light-induced photoreceptor cell death; type: in vivo; details: PBN
Source text: The aim of this study was to investigate the dose effect of XG-102 on light-induced photoreceptor cell death.
50 male Rat (Sprague-Dawley (albinos rat); approximately 8 weeks; 200-250 g (on ordering)) have been used. Rats are most commonly used in this experimental model. Animals were examined before study, and particular attention was paid to the eyes. Animals were held in observation for 2 weeks following their arrival. Animals were observed daily for signs of illness. Only healthy animals with no ocular abnormalities were accepted for use in experiments. Animals were housed individually in standard cages (420×270×190 mm)^ii. All animals were housed under identical environmental conditions. The temperature was held at 22±2° C. and the relative humidity at 55±10%. Rooms were continuously ventilated (15 times per hour). A cycle of 12 hours light (200-300 lx) and 12 hours darkness was automatically controlled. These parameters were continuously controlled and recorded. Throughout the study, animals had free access to food and water. They were fed a standard dry pellet diet. Tap water was available ad libitum from plastic bottles.
Forty-eight (48) rats were randomly divided into six (6) groups of eight (8) animals each. Test item (XG-102: 30 mg/ml, 3 mg/ml, and 0.3 mg/ml) and vehicle (0.9% NaCl) were administered by intravitreal injection in right eyes the day before induction. The reference (Phenyl-N-test-Butylnitrone (PBN) (50 mg/kg)) and vehicle were intraperitoneally injected 30 min before induction then, 3 times during 12 hours of light exposition, then once after induction. Animals were placed in constant light (7000 lux) for 24 h. Electroretinograms (ERG) were recorded before light treatment and on days 9, 16 and 23 after induction. Eyes were then taken for histology and outer nuclear layer (ONL) thickness assessment. The table below summarizes the allocation of animals in treatment groups:
For the intravitreal injection animals were anesthetized by intramuscular injection of a mixture of xylazine/ketamine. Test item (5 μl) and vehicle (5 μl) were injected in the right eye. The injection was performed under an operating microscope in the supratemporal area at pars plana using a 33G-needle mounted on a 50 μl Hamilton. The filled syringe was mounted into the UltraMicroPump III to achieve accurate injection in microliter range. Reference and vehicle were injected intraperitoneally at a dose volume of 2.5 ml/kg using a 30G-needle mounted on a 1 ml-syringe.
Light Exposure: The rats that had been dark-adapted overnight were exposed for 24 hours to a continuous white fluorescent light (7000 Ix) in clear plastic cages. Each cage contained one rat. After exposure, the rats returned to rearing cyclic light conditions.
ERG was recorded before induction and 7, 14 and 21 days after cessation of exposure (Days 9, 16 and 23) on right eyes of dark-adapted and anesthetized animals. The latency times (for a- and b-wave) and the a-wave and b-wave amplitudes were measured for each ERG; the latency times were expressed as millisecond and the a-wave and b-wave as a percentage of the baseline value obtained before light exposure. 15 min before measurement 10 μl Mydriaticum® (0.5% tropicamide) were instilled for pupillary dilatation.
ERG Parameters: • Color: white maximum. • Maximum intensity: 2.6 cd·s/m^2 (0 dB); Duration 0.24 ms; number of flash: 1. • Filter: 50 Hz. • Impedence Threshold: 90 kΩ.
Measurement of the ONL Thickness: After ERG testing, animal was euthanized by an overdose of pentobarbital and the right eyes were enucleated, fixed and embedded in paraffin. Sections (5 μm thick) were performed along the vertical meridian and stained with Trichrome-Masson. The vertical meridian included the optic nerve.
Group mean values and standard deviation were calculated. A statistical Mann and Whitney test was used to evaluate the differences between pair-wise groups. For comparison between time-point into each vehicle groups, a Friedman test was used. […]

[2] = test system: patients after ocular surgery; assay: Clinical Phase II, post-surgery intraocular inflammation: safety
Procedure: The criteria for evaluation of safety were: • a. Visual acuity by ETDRS method • b. Slit Lamp examination findings • c. The results of the ophthalmic fundus examination • d. Intra Ocular Pressure (IOP) measurements • e. Vital signs (blood pressure (BP), pulse rate (PR) and rhythm) • f. The results of the hematology and chemistry laboratory tests • g. The occurrence of Adverse Events • h. Presence (or not) of XG-102 in plasma 1 hour after the administration of study treatment in a subset of patients (approximately 30).
An AE is therefore any unfavorable and unintended sign, symptom or disease temporally associated with the use of a medicinal product, whether or not considered related to the medicinal product.
A Suspected Unexpected Serious Adverse Reaction (SUSAR) was defined as a suspected adverse reaction related to the treatment that is both unexpected (i.e. not consistent with the expected outcomes of the study treatment being administered) and serious.
Patients were analyzed as treated, i.e. according to the treatment which they received. The safety set was the primary analysis set for the safety analysis.
The present study was a double-blind study. All patients who were randomized and for whom the sub-conjunctival injection was started are included in the safety analysis by dose group. […] If the study treatment eye drops were stopped prematurely (i.e. before day 21), the patients concerned continued follow-up until day 28, in accordance with the study protocol.
Investigators assessed (in a blinded manner) the relationship of each reported AE to any of the study treatments. An event was considered to be related to study treatment if the Investigator ticked either ‘possible’ or ‘probable’ as the reply to this question.

[3] = test system: female Sprague-Dawley rats, CYP-induced cystitis; assay: CYP-induced acute cystitis, intravesical treatment; type: in vivo, rat; details: 50 mg/mL i.ves., 24 h post-CYP
Procedure: (§1) This preclinical model is well-used to test therapeutic approaches for the treatment of interstitial cystitis/painful bladder syndrome (IC/PBS).
(§2) Animals were acclimatized to the laboratory conditions for at least 3 days before the start of any experiments. The animals were allocated to the following four experimental groups (n=10 animals per group):
(§3) To induce acute cystitis, a single i.p. injection of CYP at a dose of 150 mg/kg in a final volume of 5 mL/kg was performed. Control rats received physiological saline under the same experimental conditions as CYP (final volume of 5 mL/kg, i.p.).
(§4) On the day of each experiment, weight of rats was recorded.
Standardized conditions including fixed time-of-day (a.m. to minimize the potential circadian variations in the behaviours responses) and single-experimenter testing of all animals were applied to minimize variability behavior-based pain testing. Visceral pain including allodynia and hyperalgesia was evaluated by applying to the lower abdomen, close to the urinary bladder, a set of 8 calibrated von Frey filaments of increasing forces (1, 2, 4, 6, 8, 10, 26 and 60 g) with an interstimulus interval of 5 seconds. Prior testing, the abdominal area designed for mechanical stimulation of each animal was shaved. Animals were then placed on a raised wire mesh floor under individual transparent Plexiglas box and acclimatized for at least 30 minutes before starting the von Frey test. Filaments were then applied 1-2 seconds through the mesh floor with enough strength to cause the filament to slightly bend. Each filament was tested 3 times. Care was taken to stimulate different areas within the lower abdominal region in the vicinity of the urinary bladder to avoid desensitization.
Urinary bladders were rapidly collected and cleaned from lipoid tissue. […] Finally, wall thickness was measured using a digital caliper by placing the bladder wall between the two outside jaws.

[4] = test system: female Sprague-Dawley rats, CYP-induced cystitis; assay: CYP-induced acute cystitis, intravenous treatment; type: in vivo, rat; details: XG-102 2 mg/kg i.v. or ibuprofen 10 mg/kg i.v., 24 h post-CYP
Procedure: as §1, §2, §3, §4
Standardized conditions including fixed time-of-day (a.m. to minimize the potential circadian variations in the behaviours responses) and single-experimenter testing of all animals were applied to minimize variability behavior-based pain testing. Visceral pain including allodynia and hyperalgesia was evaluated by applying to the lower abdomen, close to the urinary bladder, a set of 8 calibrated von Frey filaments of increasing forces (1, 2, 4, 6, 8, 10, 26 and 60 g) with an interstimulus interval of 5 seconds. Prior testing, the abdominal area designed for mechanical stimulation of each animal was shaved. […]

TC-3 cell cultures = assay: Cellular import of fluorescein-labeled TAT and TAT-IB1(s) peptides; type: cell-based; details: fluorescein-labeled peptide 1 μM
Procedure: The ability of the L- and D-enantiomeric forms of TAT and TAT-IB1(s) peptides (“TAT-IB peptides”) to enter cells was evaluated. L-TAT, D-TAT, L-TAT-IB1(s), and D-TAT-IB1(s) peptides [SEQ ID NOs: 5, 6, 9 and 12, respectively] were labeled by N-terminal addition of a glycine residue conjugated to fluorescein. Labeled peptides (1 μM) were added to TC-3 cell cultures, which were maintained as described in Example 3. At predetermined times cells were washed with PBS and fixed for five minutes in ice-cold methanol-acetone (1:1) before being examined under a fluorescence microscope. Fluorescein-labeled BSA (1 μM, 12 moles/mole BSA) was used as a control.
Little to no signal was present at 48 hours.
Fluorescent signals from these all-D retro-inverso peptides were still very strong 1 week later, and the signal was only slightly diminished at 2 weeks post treatment.

[5] = Dexamethasone group, blinded assessment

For “TDQSRPVQPFLNLTTPRKPRYTDPPRRRQRRKKRG ([dT][dD][dQ][dS][dR][dP][dV][dQ][dP][dF][dL][dN][dL][dT][dT][dP][dR][dK][dP][dR][dY][dT][dD][dP][dP][dR][dR][dR][dQ][dR][dR][dK][dK][dR]G) [D-TAT-IB1]”, the IL-1 induced apoptosis (TC-3 cells) was “decreased IL-1 induced apoptosis to a similar extent as L-TAT-IB peptides”.
For “IPSPSVEEPHKHRPTTLRLTTLGAQDS (Description of sequence Peptide IB2-long (see Table 1))”, the “efficiency in binding JNK relative to c-Jun or ATF2” value (JNK) is given as “approximately 100 fold”.
With CC(C)(C)[N+]([O-])=Cc1ccccc1 [PBN, Phenyl-N-tert-Butylnitrone] the “recovery of the b-wave (% of baseline)” value ([1]; Day 9) was 100%, the “recovery of the b-wave (% of baseline)” value ([1]; Day 16) was 103.6% and the “decrease of ONL thickness vs untreated eyes” value ([1]; Day 23) was 16%. The “recovery of the a-wave (% of baseline)” value ([1]; Day 23) was 76.2% and the “recovery of the b-wave (% of baseline)” value ([1]; Day 23) was 102.4%.
With C[C@@H]1C[C@H]2[C@@H]3CCC4=CC(=O)C=C[C@]4(C)[C@@]3(F)[C@@H](O)C[C@]2(C)[C@@]1(O)C(=O)CO [Dexamethasone, reference compound] the “Reported AEs by severity: Mild” value ([2]; Dexamethasone dose group) was 42 (76.4%) number of events (% of reported events), the “Reported AEs by severity: Moderate” value ([2]; Dexamethasone dose group) was 9 (16.4%) number of events (% of reported events) and the “Reported AEs by severity: Severe” value ([2]; Dexamethasone dose group) was 4 (7.3%) number of events (% of reported events). For the same molecule, the “AEs considered by the Investigator to be related to Dexamethasone” value [2, 5] was 2 (3.6%) Total # events (%), the “AEs considered by the Investigator to be related to XG-102” value [2, 5] was 13 (23.64%) Total # events (%) and the “Intraocular pressure increased, patients” value ([2]; dexamethasone) was 14%. The “events in SOC EYE DISORDERS” value ([2]; dexamethasone) was 30 events, the “patients with SAEs” value ([2]; dexamethasone) was 2 patients and the “patients with events in SOC EYE DISORDERS” value ([2]; dexamethasone) was 16 (32%).
In the case of “PGTGCGDTYRPKRPTTLNLFPQVPRSQDT (Description of sequence peptide IB1-long (see Table 1))”, the “efficiency in binding JNK relative to c-Jun or ATF2” value (JNK) is given as “approximately 100 fold”.
In the case of CC(C)Cc1ccc(C(C)C(=O)O)cc1 (stereo not shown) [ibuprofen], the haemorrhage scores [3] is reported as “no significant change was observed regarding haemorrhage scores”, the nociceptive scores [3] is reported as “significant decrease of nociceptive scores” and the “urinary bladder wall thickness” value [3] is reported as “a significant decrease was observed in urinary bladder wall thickness”. The nociceptive threshold ([3]; vs vehicle) was “Nociceptive threshold was significantly increased by ibuprofen treatment”, the nociceptive scores [4] was “significantly decrease nociceptive scores” and the nociceptive threshold [4] was “Nociceptive threshold was significantly increased by ibuprofen treatment”.
With “GRKKRRQRRR (Description of sequence Peptide L-TAT (see Table 1))” the entry into cells (TC-3 cell cultures) was “efficiently and rapidly (less than five minutes) entered cells”.
With “GRKKRRQRRRPPRPKRPTTLNLFPQVPRSQD [L-TAT-IB1(s)]” the entry into cells (TC-3 cell cultures) was “efficiently and rapidly (less than five minutes) entered cells”.
